Results published in US9179674B2, “Macrocyclic picolinamide compounds with fungicidal activity” (DOW AGROSCIENCES LLC, priority 2013, dated 2015).
Read-outs that look alike come from different tables or passages of the source.

Columns and labels:
[1] = tested on: Puccinia triticina; assay: Wheat Brown Rust fungicidal activity (PUCCRT); type: in vivo; settings: Puccinia triticina, rate 100 ppm
Method: Technical grades of materials were dissolved in acetone, which were then mixed with nine volumes of water containing 110 ppm Triton X-100. The fungicide solutions were applied onto wheat seedlings using an automated booth sprayer to run-off. All sprayed plants were allowed to air dry prior to further handling. All fungicides were evaluated using the aforementioned method for their activity vs. all target diseases. Wheat leaf blotch and brown rust activity were also evaluated using track spray applications, in which case the fungicides were formulated as EC formulations, containing 0.1% Trycol 5941 in the spray solutions. Wheat plants (variety Yuma) were grown from seed in a greenhouse in 50% mineral soil/50% soil-less Metro mix until the first leaf was fully emerged, with 7-10 seedlings per pot. These plants were inoculated with an aqueous spore suspension of Septoria tritici either prior to or after fungicide treatments. After inoculation the plants were kept in 100% relative humidity (one day in a dark dew chamber followed by two to three days in a lighted dew chamber at 20° C.) to permit spores to germinate and infect the leaf. The plants were then transferred to a greenhouse set at 20° C. for disease to develop. When disease symptoms were fully expressed on the 1st leaves of untreated plants, infection levels were assessed on a scale of 0 to 100 percent disease severity. Percent disease control was calculated using the ratio of disease severity on treated plants relative to untreated plants. Evaluation of Fungicidal Activity: Wheat Brown Rust (Puccinia triticina; Synonym: Puccinia recondite f sp. tritici; Bayer code PUCCRT) Wheat plants (variety Yuma) were grown from seed in a greenhouse in 50% mineral soil/50% soil-less Metro mix until the first leaf was fully emerged, with 7-10 seedlings per pot. These plants were inoculated with an aqueous spore suspension of Puccinia triticina either prior to or after fungicide treatments. After inoculation the plants were kept in a dark dew room at 22° C. with 100% relative humidity overnight to permit spores to germinate and infect the leaf. The plants were then transferred to a greenhouse set at 24° C. for disease to develop. Fungicide formulation, application and disease assessment followed the procedures as described in the Example A.

[2] = tested on: Mycosphaerella graminicola; Anamorph: Septoria tritici; assay: Leaf Blotch of Wheat fungicidal activity (SEPTTR); type: in vivo; settings: Zymoseptoria tritici, rate 100 ppm
Method: Evaluation of Fungicidal Activity: Leaf Blotch of Wheat (Mycosphaerella graminicola; Anamorph: Septoria tritici; Bayer code […]) Technical grades of materials were dissolved in acetone, which were then mixed with nine volumes of water containing 110 ppm Triton X-100. The fungicide solutions were applied onto wheat seedlings using an automated booth sprayer to run-off. All sprayed plants were allowed to air dry prior to further handling. All fungicides were evaluated using the aforementioned method for their activity vs. all target diseases. Wheat leaf blotch and brown rust activity were also evaluated using track spray applications, in which case the fungicides were formulated as EC formulations, containing 0.1% Trycol 5941 in the spray solutions. Wheat plants (variety Yuma) were grown from seed in a greenhouse in 50% mineral soil/50% soil-less Metro mix until the first leaf was fully emerged, with 7-10 seedlings per pot. These plants were inoculated with an aqueous spore suspension of Septoria tritici either prior to or after fungicide treatments. After inoculation the plants were kept in 100% relative humidity (one day in a dark dew chamber followed by two to three days in a lighted dew chamber at 20° C.) to permit spores to germinate and infect the leaf. The plants were then transferred to a greenhouse set at 20° C. for disease to develop. When disease symptoms were fully expressed on the 1st leaves of untreated plants, infection levels were assessed on a scale of 0 to 100 percent disease severity. Percent disease control was calculated using the ratio of disease severity on treated plants relative to untreated plants.

[3] = 24 h, 1 Day Protectant, read-out: Disease control PUCCRT 1DP
[4] = 72 h, 3 Day Curative, read-out: Disease control PUCCRT 3DC
[5] = 24 h, 1 Day Protectant, read-out: Disease control SEPTTR 1DP
[6] = 72 h, 3 Day Curative, read-out: Disease control SEPTTR 3DC

| Compound | pest or weed control at 100 ppm [1, 3] | pest or weed control at 100 ppm [1, 4] | pest or weed control at 100 ppm [2, 5] | pest or weed control at 100 ppm [2, 6] |
| --- | --- | --- | --- | --- |
| COc1ccnc(C(=O)N[C@H]2COC[C@H](CCc3ccccc3)[C@@H](OC(=O)C3CC3)[C@H](C)OC2=O)c1O [Compound F15] | 80 to 100% | 0 to 80% | 80 to 100% | 80 to 100% |
| COc1ccnc(C(=O)N[C@H]2COC[C@H](CCc3ccccc3)[C@@H](Oc3ccc(C)cc3)[C@H](C)OC2=O)c1O [Compound F16] | 80 to 100% | 0 to 80% | 80 to 100% | 0 to 80% |
| COc1ccnc(C(=O)N[C@H]2COC[C@H](Cc3ccc(F)cc3)[C@@H](OCCCC(F)(F)F)[C@H](C)OC2=O)c1O [Compound F17] | 80 to 100% | 0 to 80% | 80 to 100% | 80 to 100% |
| COc1ccnc(C(=O)N[C@H]2COC[C@H](Cc3ccc(F)cc3)[C@@H](OC3CCCC3)[C@H](C)OC2=O)c1O [Compound F18] | 80 to 100% | 80 to 100% | 80 to 100% | 0 to 80% |
| CCCCCO[C@@H]1[C@@H](Cc2ccc(F)cc2)COC[C@H](NC(=O)c2nccc(OC)c2O)C(=O)O[C@H]1C [Compound F19] | 80 to 100% | 80 to 100% | 80 to 100% | 80 to 100% |
| COc1ccnc(C(=O)N[C@H]2COC[C@H](Cc3ccc(F)cc3)[C@@H](OCC(C)C)[C@H](C)OC2=O)c1O [Compound F21] | 80 to 100% | 80 to 100% | 80 to 100% | 80 to 100% |
| COc1ccnc(C(=O)N[C@H]2COC[C@H](Cc3ccc(C)cc3)[C@@H](OC(=O)C3CC3)[C@H](C)OC2=O)c1O [Compound F22] | 0 to 80% | 0 to 80% |  | 0 to 80% |
| COc1ccnc(C(=O)N[C@H]2COC[C@H](Cc3ccc(C)cc3)[C@@H](OCCCC(F)(F)F)[C@H](C)OC2=O)c1O [Compound F23] | 80 to 100% | 0 to 80% | 80 to 100% | 0 to 80% |
| COc1ccnc(C(=O)N[C@H]2COC[C@H](Cc3ccc(C)cc3)[C@@H](Oc3ccccc3)[C@H](C)OC2=O)c1O [Compound F24] | 80 to 100% | 0 to 80% | 80 to 100% | 0 to 80% |
| COc1ccnc(C(=O)N[C@H]2COC[C@H](Cc3ccc(C)cc3)[C@@H](OC3CCCC3)[C@H](C)OC2=O)c1O [Compound F25] | 80 to 100% | 0 to 80% | 80 to 100% | 80 to 100% |
| COc1ccnc(C(=O)N[C@H]2COC[C@H](Cc3ccc(C(F)(F)F)cc3)[C@@H](OC(=O)C3CC3)[C@H](C)OC2=O)c1O [Compound F26] | 0 to 80% |  | 80 to 100% | 0 to 80% |
| COc1ccnc(C(=O)N[C@H]2COC[C@H](Cc3ccc(C(F)(F)F)cc3)[C@@H](OCC(C)C)[C@H](C)OC2=O)c1O [Compound F27] | 80 to 100% | 0 to 80% | 80 to 100% | 0 to 80% |
| COc1ccnc(C(=O)N[C@H]2COC[C@H](Cc3ccc(C(F)(F)F)cc3)[C@@H](OC3CCCC3)[C@H](C)OC2=O)c1O [Compound F28] | 80 to 100% | 0 to 80% | 80 to 100% | 0 to 80% |
